# Experimental data as given in patent publication US12076342B2, “Method for generating progenitor t cells from stem and/or progenitor cells and use of same” (THE GOVERNING COUNCIL OF THE UNIVERSITY OF TORONTO, priority 2016, dated 2024).
# B1: DL1: Delta-like-1 (DL1), alternate Notch-1 ligand (protein, UniProt O00548 18-723, looked up)
# Delta-like protein 1: QVWSSGVFELKLQEFVNKKGLLGNRNCCRGGAGPPPCACRTFFRVCLKHYQASVSPEPPCTYGSAVTPVLGVDSFSLPDGGGADSAFSNPIRFPFGFTWPGTFSLIIEALHTDSPDDLATENPERLISRLATQRHLTVGEEWSQDLHSSGRTDLKYSYRFVCDEHYYGEGCSVFCRPRDDAFGHFTCGERGEKVCNPGWKGPYCTEPICLPGCDEQHGFCDKPGECKCRVGWQGRYCDECIRYPGCLHGTCQQPWQCNCQEGWGGLFCNQDLNYCTHHKPCKNGATCTNTGQGSYTCSCRPGYTGATCELGIDECDPSPCKNGGSCTDLENSYSCTCPPGFYGKICELSAMTCADGPCFNGGRCSDSPDGGYSCRCPVGYSGFNCEKKIDYCSSSPCSNGAKCVDLGDAYLCRCQAGFSGRHCDDNVDDCASSPCANGGTCRDGVNDFSCTCPPGYTGRNCSAPVSRCEHAPCHNGATCHERGHRYVCECARGYGGPNCQFLLPELPPGPAVVDLTEKLEGQGGPFPWVAVCAGVILVLMLLLGCAAVVVCVRLRLQKHRPPADPCRGETETMNNLANCQREKDISVSIIGATQIKNTNKKADFHGDHSADKNGFKARYPAVDYNLVQDLKGDDTAVRDAHSKRDTKCQPQGSSGEEKGTPTTLRGGEASERKRPDSGCSTSKDTKYQSVYVISEEKDECVIATEV
# B2: IL-7: Interleukin-7 cytokine (R&D Systems) (protein, UniProt P13232 26-177, looked up)
# Interleukin-7: DCDIEGKDGKQYESVLMVSIDQLLDSMKEIGSNCLNNEFNFFKRHICDANKEGMFLFRAARKLRQFLKMNSTGDFDLHLLKVSEGTTILLNCTGQVKGRKPAALGEAQPTKSLEENKSLKEQKKLNDLCFLKRLLQEIKTCWNKILMGTKEH
# What was measured:
# [1] = tested on: CD34+ HSPCs derived from cord blood; test: Fed-batch bioreactor expansion culture of human CD34+ HSPCs; format: cell-based; settings: 500 nM, 12 days of expansion, compared to control FB cultures
# Method: Umbilical cord blood samples were collected from consenting donors according to ethically approved procedures at Mt. Sinai Hospital (Toronto, ON, Canada). Cells were red blood cell (RBC) depleted as previously described^10, using HetaSep (StemCell Technologies). CD34+ progenitor cells were selected with the EasySep system using a human CD34+ enrichment kit (StemCell Technologies), according to the manufacturer's protocol. Freshly isolated CD34+ cells were seeded at a density of 1×10^5 total cells/mL. Cells were seeded in StemSpan-ACF medium (StemCell Technologies), supplemented with 100 ng/mL Stem Cell Factor (SCF, R&D Systems or CellGenix), 100 ng/mL FMS-like Trysine Kinase 3 Ligand (Flt3L, R&D Systems or CellGenix), 50 ng/mL Thrombopoietin (TPO, R&D Systems or CellGenix), 2 mM GlutaMAX (GIBCO) and/or 500 nM UM729 small molecule. Cells were cultured for 12 days with minimal manual manipulation during the culture period, as previously described^11.
# Cells were harvested from either fed-batch or fed-batch+UM729 at day 12 and sorted for CD34+ and CD34− populations. Sorted CD34+ and CD34− cells from both culture methods were seeded along with thawed unexpanded day 0 CD34+ HSPCs at 4000 cells/96-well coated overnight with 20 μg/mL DL4 and 2.3 μg/mL VCAM-1 in serum-free IMDM+BIT medium containing 100 ng/mL SCF, Tpo, Flt3L and IL-7. […]
# [2] = tested on: human umbilical cord blood-derived CD34+ HSPCs; test: Human CD34+ HSPC progenitor T cell differentiation on coated plates; format: cell-based; settings: serum-free IMDM+BIT, 9 or 14 days; matrix proteins in conjunction with DL4
# Method: For human HSPC culture, umbilical cord blood samples were collected from consenting donors according to ethically approved procedures at Mount Sinai Hospital. CD34+ cells were isolated from the red blood cell (RBC)-lysed cord blood fraction using the EasySep™ Human CD34 Positive Selection Kit (Stemcell Technologies) according to the manufacturer's instructions. Flow cytometry was performed after every enrichment to ensure CD34 frequencies were greater than 95%. CD34+ HSPCs were cultured for 14 days on DL4 and VCAM-1 coated 96-well plates at higher seeding densities of 12,500 HSPCs/cm^2 (corresponding to 4000 cells/well). One complete medium exchange was performed at day 7 of culture and cells were returned to the same DL4 and VCAM-1 coated plates. For certain experiments, DL4-Fc was coated alone or with RetroNectin® (Takara Shuzo) or fibronectin (Sigma Aldrich) as described in the text. CD34+ cells were cultured in serum-free Iscove modified Dulbecco medium (Gibco) with 20% bovine serum albumin, insulin, and transferrin serum substitute (BIT; Stemcell Technologies), 1% GlutaMAX™ (Gibco) and 1 μg/mL low-density lipoproteins (Calbiochem). The medium was added at 50 μL/well supplemented with 100 ng/mL SCF (R&D Systems, Minneapolis, MN), 100 ng/mL Flt3L (R&D Systems), 100 ng/mL Tpo (R&D Systems) and 100 ng/mL IL-7 (R&D Systems).
# Surface marker staining was performed with conjugated rat anti-mouse antibodies (BD Biosciences, San Jose, CA, Table 1). All samples were analyzed on a FACSCanto™ or FACS LSRFortessa™ flow cytometer (BD Biosciences). At day 7 of culture, cells were lifted off the plate with multiple HF rinses, stained at 1:400 dilution with antibodies against CD45, CD25, CD44, CD90, CD11 b and CD19 for 20 minutes on ice. […] Integrin expression was analyzed using antibodies against α4, β1, and β7 integrin subunits on Sca-1+cKit+ mouse HSPCs and CD34+ human umbilical blood cells. […] Flow data was analyzed and batch processed using FlowJo® software and further analyzed in Python (version 2.7.10).
# [3] = tested on: sorted sca1+ckit+ fetal-liver HSPCs; test: Defined T cell differentiation assay on adsorbed ligand, flow cytometry; format: cell-based, mouse
# Method: FIG. 2a: Schematic for 2D coated DL4 assay, in which sorted E13.5 sca1+ckit+ fetal-liver HSPCs are seeded on coated DL4 ligand in standard 96-well flat bottom plates at 1000 cells/well density in 200 μl test media containing cytokines 25 ng/mL SCF, 5 ng/mL Flt3L and 1 ng/mL IL7; cells are re-fed on day 4 with fresh media containing cytokines; on day 7, cells are assayed for surface marker expression using flow cytometry.
# Commercially available DL4-Fc was purchased and used for experiments from Sino Biologicals (Cedarlane Labs, Burlington, Ontario, Canada) or manufactured in-house as described below. DL4-Fc was diluted in chilled phosphate-buffered saline (PBS) at 10 μg/mL or […] and 50 μL/well was coated in standard tissue-culture 96-well plates overnight at 4° C. Wells were washed once with PBS prior to seeding cells to remove any unbound ligand from the wells. For certain experiments, wells were also coated overnight with 50 μL/well PBS containing DL4-Fc and VCAM-1-Fc (R&D) or fibronectin (Sigma) at concentrations described herein.
# Sorted sca1+ckit+ HSPCs were cultured at 1000 cells/well (corresponding to 3.1×10^3 cells/cm^2) in DL4-coated 96-well plates in serum-free Iscove modified Dulbecco medium (Gibco, Rockville, MD) with 20% bovine serum albumin, insulin, and transferrin serum substitute (BIT; Stemcell Technologies), 1% GlutaMAX™ (Gibco) and 1 μg/mL low-density lipoproteins (Calbiochem, La Jolla, CA) [IMDM+BIT]. For positive control cultures, OP9 serum medium was used, composed of αMEM medium (Gibco) and 16% FBS (Hyclone™, GE Health). Serum-free αMEM+BIT medium was prepared exactly as IMDM+BIT medium except using αMEM (Gibco) as the base medium. OP9 serum medium, αMEM+BIT or IMDM+BIT serum free medium was added at 200 μL/well supplemented with 25 ng/mL Stem Cell Factor (SCF; R&D Systems, Minneapolis, MN), 5 ng/mL FMS-like Tyrosine Kinase 3 Ligand (Flt3L; R&D Systems) and 1 ng/mL Interleukin-7 (IL-7; R&D Systems) with a 50% medium exchange step at day 4 containing 2-fold concentrated cytokines as described previously^9. Design of Experiment (DOE) in silico modeling was performed using Design-Expert® (v10) using response surface method to investigate the combinatorial desirability of different concentrations of SCF, Flt3L and IL-7 for maximizing DN3 T-cell yield and minimizing the volume of IMDM+BIT medium. After DOE optimization, IMDM+BIT serum-free medium was added at 50 μL/well supplemented with 50 ng/mL SCF (R&D Systems), 10 ng/mL Flt3L (R&D Systems) and 10 ng/mL IL-7 (R&D Systems) unless described otherwise in the text with no medium exchange for the length of the assay. For the candidate factor screening in serum-free IMDM+BIT medium, the following proteins or small molecules were used at the concentrations listed: JAK inhibitor I (50 nM; EMD Millipore), IL-11 (10, 50, and 100 ng/mL; R&D Systems), IL-6 (10, 50, and 100 ng/mL; R&D Systems), IL-6R (100 ng/mL; R&D Systems), Ccl25 (1.5 μg/mL; R&D Systems), IL-7 (50, 100, and 200 ng/mL; R&D Systems), SDF1α (Cxcl12; 200 ng/mL; R&D Systems), and Leukemia Inhibitory Factor (LIF; 0.1, 1, and 10 ng/mL; EMD Millipore).
# Surface marker staining was performed with conjugated rat anti-mouse antibodies (BD Biosciences, San Jose, CA, Table 1). All samples were analyzed on a FACSCanto™ or FACS LSRFortessa™ flow cytometer (BD Biosciences). At day 7 of culture, cells were lifted off the plate with multiple HF rinses, stained at 1:400 dilution with antibodies against CD45, CD25, CD44, CD90, CD11 b and CD19 for 20 minutes on ice. Human progenitor T-cells were stained at 1:100 dilution with antibodies against CD34, CD7, CD5 and CD45RA. Integrin expression was analyzed using antibodies against α4, β1, and β7 integrin subunits on Sca-1+cKit+ mouse HSPCs and CD34+ human umbilical blood cells. […]
# [4] = tested on: Notch pathway (CBF1-Firefly); test: NIH3T3 luciferase assay for measuring Notch activation; format: cell-based
# Method: NIH3T3 cells were seeded at 125,000 cells/well in a 6-well plate on the previous day and transiently transfected overnight with Notch1, CBF1-Firefly and constitutively active Renilla plasmids using FuGENE® HD transfection reagent (Promega Corporation, Madison WI USA) as per the manufacturer's instructions. Transfected NIH3T3 cells were either seeded on DL4-coated plates or in DL4-conjugated MC for 24 hours prior to measuring Firefly activation normalized to Renilla expression using the dual-luciferase reporter assay system (Promega Corporation, Madison WI USA) according to the manufacturer's instructions.
molecule,measurement,setting,value
COC(=O)c1ccc2c(c1)[nH]c1ncnc(NCCCN3CCCCC3)c12 [UM-729],CD34− yield,[1],minimized CD34− yield
same,overall CD34+ yield,[1],enhanced overall CD34+ yield
fibronectin [reference compound],generation of later stage progenitor T cells from CD34+ HSPCs,[2],incapable of differentiating CD7+CD34+ progenitors further along the T cell lineage
soluble DL4: DL4 ligand supplied in soluble rather than adsorbed form,DN3 cell generation in soluble ligand,"[3]; 10 μg/mL soluble DL4, day 7",no DN3 cells were generated
same,effect of soluble ligand on induction by adsorbed DL4,"[3]; mixture of adsorbed and soluble DL4, day 7",completely inhibited the inductive effects of adsorbed DL4 ligand
same,Notch1 intracellular domain translocation (CBF1-luciferase),"[4]; soluble DL4 added, cells on immobilized DL4",actively inhibits translocation of the intracellular domain of Notch1 receptor
B1,generation of DN2/DN3 progenitor T cells on adsorbed ligand,"[3]; same range of coating concentrations as DL4, day 7",incapable of generating DN2 or DN3 progenitor T cells
same,Notch pathway activation (CBF-1 Firefly normalized to Renilla),"[4]; 24 hours, DL1-Fc at 10 and 20 μg/mL",unable to sustain progenitor T cell production or activate the Notch pathway at similar coating concentrations as DL4 ligand
B2,DN3 yield with raised IL-7 concentration,"[3]; IL-7 from 2 to 10 ng/mL, 50-10-10 no-feed condition vs 25-5-1 re-feed control",significantly higher yields of T lineage-committed DN3 cells than the control
